From PubChem BioAssay (NCI)
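Method: 48-hour compound exposure of cells in 96-well plates, five concentrations, linear interpolation of endpoints. GI50 = concentration required for 50% inhibition of growth. Definition used: TGI = concentration required for complete inhibition of growth.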

Legend:
Test in all cases: NCI-60 cell line screen, 48 h
CCRF-CEM leukemia = system: CCRF-CEM leukemia
SR leukemia = system: SR leukemia
SK-MEL-2 melanoma = system: SK-MEL-2 melanoma
UO-31 renal = system: UO-31 renal
NCI-H23 lung = system: NCI-H23 lung
A549 NSCLC = system: A549 NSCLC
HT29 colon = system: HT29 colon
SK-MEL-28 melanoma = system: SK-MEL-28 melanoma
KM12 colon = system: KM12 colon
RPMI-8226 leukemia = system: RPMI-8226 leukemia

Row | SMILES | TGI (CCRF-CEM leukemia) | TGI (SR leukemia) | TGI (SK-MEL-2 melanoma) | TGI (UO-31 renal) | TGI (NCI-H23 lung) | TGI (A549 NSCLC) | TGI (HT29 colon) | TGI (SK-MEL-28 melanoma) | GI50 (CCRF-CEM leukemia) | GI50 (SR leukemia) | GI50 (KM12 colon) | TGI (KM12 colon) | GI50 (SK-MEL-2 melanoma) | GI50 (UO-31 renal) | GI50 (NCI-H23 lung) | GI50 (A549 NSCLC) | GI50 (HT29 colon) | GI50 (SK-MEL-28 melanoma) | GI50 (RPMI-8226 leukemia) | TGI (RPMI-8226 leukemia)
1 | CC1=C(C(=O)Nc2ccccc2)C(c2cccc3ccccc23)C(C(=O)Nc2ccccc2)=C(C)N1 | 59.6 µM | 22.6 µM | 34.7 µM | 52.8 µM | 52.5 µM | 82 µM | 36.2 µM | 34.7 µM |  |  |  |  |  |  |  |  |  |  |  | 
2 | CCC(C)Nc1ccc(N)cc1 (centres undefined) | 17.9 µM | 5.4 µM | 8.61 µM | 14 µM | 8.89 µM | 48.5 µM | 10.7 µM | 18.9 µM | 3.33 µM | 2.1 µM | 4.09 µM | 13.5 µM | 3.21 µM | 3.3 µM | 2.89 µM | 4.7 µM | 3.16 µM | 6.37 µM |  | 
3 | COC(=O)[C@H](Cc1cnc[nH]1)NC(=O)[C@@H](NC(=O)Nc1cc(C(F)(F)F)cc(C(F)(F)F)c1)C(C)C | 35.6 µM | 32.8 µM |  | 29.5 µM | 31.7 µM | 32.7 µM | 33.8 µM | 29.2 µM | 14.7 µM | 13.2 µM | 18.4 µM | 35.3 µM |  | 15 µM | 16.4 µM | 16.7 µM | 18.1 µM | 15.7 µM | 16.1 µM | 38.9 µM
4 | O=C(CC1OC(O)C(Cl)=C1Cl)c1cccnc1 (centres undefined) | > 100 µM | > 100 µM |  | > 100 µM | > 100 µM | > 100 µM | > 59.7 µM | > 100 µM |  |  |  | > 100 µM |  |  |  |  |  |  |  | > 60.8 µM
5 | CCCCCCCCCCCCCC[N+](C)(C)CCCCCCCCCCCCCC |  | 9.96 µM |  | > 100 µM | 6.13 µM |  |  |  |  | 2.46 µM |  |  |  | 4.44 µM | 2.12 µM |  |  |  | 1.77 µM | 4.44 µM
6 | CN(C)c1ccc2oc(=O)c3ccccc3c2c1 | > 100 µM | > 100 µM | 84.1 µM |  | 64.2 µM | > 100 µM | > 100 µM | > 100 µM |  |  |  |  |  |  |  |  |  |  |  | > 100 µM
7 | COC(=O)c1ccc(CN2C(=O)C(Cl)=C(Nc3cccc(Cl)c3C)C2=O)cc1 | > 100 µM |  | 21.9 µM | > 100 µM | > 100 µM | > 100 µM | > 100 µM | > 100 µM | 3.32 µM |  | 4.03 µM | > 100 µM | 3.48 µM | 15.1 µM | 10.3 µM | 37.2 µM | 4.85 µM | 15.2 µM | 3.76 µM | 48.2 µM
8 | O=C1C=CC=C/C1=C1/SC(c2ccccc2)=C(O)N1c1ccccc1 |  |  | > 100 µM | > 100 µM | > 100 µM | > 100 µM | > 100 µM | > 100 µM |  |  |  | > 100 µM |  |  |  |  |  |  |  | 
9 | CNC(=O)c1c(NC(=O)c2ccc(C(C)(C)C)cc2)sc2c(CN(C)C)c(O)ccc12 | 4.68 µM | 3.5 µM | 4.28 µM | 2.89 µM |  |  |  | 3.19 µM | 1.2 µM | 0.99 µM | 1.78 µM | 3.2 µM | 2.1 µM | 1.49 µM |  |  |  | 1.73 µM |  | 
10 | CC1/C(=N\O)CC(c2ccccc2)N(C)C1c1ccccc1 (centres undefined) | > 100 µM |  | > 100 µM | > 100 µM | > 100 µM | > 100 µM | > 100 µM | > 100 µM |  |  |  | > 100 µM |  |  |  |  |  |  |  | 
